Assay results reported in PubChem BioAssay (NCI).
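Exposure lasted 48 hours, with cells grown in 96-well plates and compounds tested at five concentrations. GI50 is the concentration that inhibits growth by half. TGI: concentration producing complete growth inhibition.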

Assays:
Experiment in all cases: NCI anticancer screen, dose series, 48 h
786-0 renal = system: 786-0 renal
A549 NSCLC = system: A549 NSCLC
ACHN renal = system: ACHN renal
BT-549 breast = system: BT-549 breast
CAKI-1 renal = system: CAKI-1 renal
CCRF-CEM leukemia = system: CCRF-CEM leukemia
COLO 205 colon = system: COLO 205 colon
DU-145 prostate = system: DU-145 prostate
EKVX NSCLC = system: EKVX NSCLC
HCC-2998 colon = system: HCC-2998 colon
HCT-116 colon = system: HCT-116 colon
HCT-15 colon = system: HCT-15 colon
HL-60(TB) leukemia = system: HL-60(TB) leukemia
HOP-62 NSCLC = system: HOP-62 NSCLC
HOP-92 NSCLC = system: HOP-92 NSCLC
HS 578T breast = system: HS 578T breast
HT29 colon = system: HT29 colon
IGROV1 ovarian = system: IGROV1 ovarian
K-562 leukemia = system: K-562 leukemia
KM12 colon = system: KM12 colon
LOX IMVI melanoma = system: LOX IMVI melanoma
M14 melanoma = system: M14 melanoma
MALME-3M melanoma = system: MALME-3M melanoma
MCF7 breast = system: MCF7 breast
MDA-MB-231 breast = system: MDA-MB-231 breast
MDA-MB-435 = system: MDA-MB-435
MOLT-4 leukemia = system: MOLT-4 leukemia
NCI-H226 lung = system: NCI-H226 lung

Structure (SMILES): O=S(=O)(Nc1ccc(I)c(Cl)c1)c1ccc(-c2cnc(C3CC3)o2)cc1
- GI50 (786-0 renal): 2.57 µM
- TGI (786-0 renal): 17.2 µM
- GI50 (A549 NSCLC): 1.57 µM
- TGI (A549 NSCLC): 12.7 µM
- GI50 (ACHN renal): 3.03 µM
- TGI (ACHN renal): 16.8 µM
- GI50 (BT-549 breast): 1.37 µM
- TGI (BT-549 breast): 16 µM
- GI50 (CAKI-1 renal): 0.658 µM
- TGI (CAKI-1 renal): 14.9 µM
- GI50 (CCRF-CEM leukemia): 0.877 µM
- TGI (CCRF-CEM leukemia): 23.1 µM
- GI50 (COLO 205 colon): 3.04 µM
- TGI (COLO 205 colon): 15.6 µM
- GI50 (DU-145 prostate): 2.63 µM
- TGI (DU-145 prostate): 11.8 µM
- GI50 (EKVX NSCLC): 2.85 µM
- TGI (EKVX NSCLC): 15.7 µM
- GI50 (HCC-2998 colon): 2.37 µM
- TGI (HCC-2998 colon): 11.2 µM
- GI50 (HCT-116 colon): 1.13 µM
- TGI (HCT-116 colon): 11.9 µM
- GI50 (HCT-15 colon): 0.582 µM
- TGI (HCT-15 colon): 12.3 µM
- GI50 (HL-60(TB) leukemia): 0.461 µM
- TGI (HL-60(TB) leukemia): 3.93 µM
- GI50 (HOP-62 NSCLC): 1.59 µM
- TGI (HOP-62 NSCLC): 17.6 µM
- GI50 (HOP-92 NSCLC): 0.434 µM
- TGI (HOP-92 NSCLC): 5.76 µM
- GI50 (HS 578T breast): 0.416 µM
- TGI (HS 578T breast): 3.01 µM
- GI50 (HT29 colon): 0.994 µM
- TGI (HT29 colon): 5.8 µM
- GI50 (IGROV1 ovarian): 1.45 µM
- TGI (IGROV1 ovarian): 16.6 µM
- GI50 (K-562 leukemia): 0.456 µM
- TGI (K-562 leukemia): 27.4 µM
- GI50 (KM12 colon): 0.888 µM
- TGI (KM12 colon): 12.4 µM
- GI50 (LOX IMVI melanoma): 2.64 µM
- TGI (LOX IMVI melanoma): 17.7 µM
- GI50 (M14 melanoma): 0.969 µM
- TGI (M14 melanoma): 12.3 µM
- GI50 (MALME-3M melanoma): 1.5 µM
- TGI (MALME-3M melanoma): 23 µM
- GI50 (MCF7 breast): 0.454 µM
- TGI (MCF7 breast): 12 µM
- GI50 (MDA-MB-231 breast): 3.96 µM
- TGI (MDA-MB-231 breast): 19.4 µM
- GI50 (MDA-MB-435): 0.259 µM
- TGI (MDA-MB-435): 0.817 µM
- GI50 (MOLT-4 leukemia): 1.39 µM
- TGI (MOLT-4 leukemia): 22.5 µM
- GI50 (NCI-H226 lung): 3.97 µM
- TGI (NCI-H226 lung): 18.9 µM
